From patent US7030096B1, “Method of enhancing relaxation of penile smooth muscle by introduction of DNA encoding maxi-K potassium channel protein” (Albert Einstein College of Medicine of Yeshiva University, priority 1997, dated 2006)
Where two headings read alike, the source gives them in different places. Where no end group is shown, it is not given here.

Experiments:
KATP channel = details: Table 4; cited from earlier work
corporal smooth muscle = details: cited from earlier work
[1] = test system: isolated human corporal tissue strips; details: cited from earlier work
L-type Ca^2+ channel = details: cited from earlier work
maxi-K channel [2] = target: T1, maxi-K channel (Homo sapiens, UniProt Q12791); format: cell-based
[3] = test system: isolated human corporal tissue strips; format: cell-based
KCa channel = KCa channel (Homo sapiens, UniProt Q12791); details: Table 4; cited from earlier work
[4] = test system: cultured human corporal smooth muscle cells; assay: Resting and ET-1-induced intracellular calcium in fura-2-loaded cultured cells; format: cell-based; details: transfection with hSlo cDNA or preincubation with PGE1 (500 nM)
Description: Urol., 155:[…], 1996). This decrease is indistinguishable from the decrease seen in the absence of extracellular Ca^2+ (in 2 mM EGTA), or when cells are preincubated with either nifedipine (Zhao and Christ, J. Urol., 154:1571-79, 1995) or verapamil, both of which are blockers of the L-type voltage-dependent calcium channel. [table]

[5] = test system: cultured human corporal smooth muscle cells; details: preincubation with 500 nM PGE1, cited from earlier work
maxi-K channel [6] = target: T1, maxi-K channel; details: all four recording modes; cited from earlier work
[7] = test system: precontracted corporal tissue strips; details: from both animals and humans; cited from earlier work
monkeys and humans = details: cited from earlier work

KCa channel, sequence (Q12791 whole entry): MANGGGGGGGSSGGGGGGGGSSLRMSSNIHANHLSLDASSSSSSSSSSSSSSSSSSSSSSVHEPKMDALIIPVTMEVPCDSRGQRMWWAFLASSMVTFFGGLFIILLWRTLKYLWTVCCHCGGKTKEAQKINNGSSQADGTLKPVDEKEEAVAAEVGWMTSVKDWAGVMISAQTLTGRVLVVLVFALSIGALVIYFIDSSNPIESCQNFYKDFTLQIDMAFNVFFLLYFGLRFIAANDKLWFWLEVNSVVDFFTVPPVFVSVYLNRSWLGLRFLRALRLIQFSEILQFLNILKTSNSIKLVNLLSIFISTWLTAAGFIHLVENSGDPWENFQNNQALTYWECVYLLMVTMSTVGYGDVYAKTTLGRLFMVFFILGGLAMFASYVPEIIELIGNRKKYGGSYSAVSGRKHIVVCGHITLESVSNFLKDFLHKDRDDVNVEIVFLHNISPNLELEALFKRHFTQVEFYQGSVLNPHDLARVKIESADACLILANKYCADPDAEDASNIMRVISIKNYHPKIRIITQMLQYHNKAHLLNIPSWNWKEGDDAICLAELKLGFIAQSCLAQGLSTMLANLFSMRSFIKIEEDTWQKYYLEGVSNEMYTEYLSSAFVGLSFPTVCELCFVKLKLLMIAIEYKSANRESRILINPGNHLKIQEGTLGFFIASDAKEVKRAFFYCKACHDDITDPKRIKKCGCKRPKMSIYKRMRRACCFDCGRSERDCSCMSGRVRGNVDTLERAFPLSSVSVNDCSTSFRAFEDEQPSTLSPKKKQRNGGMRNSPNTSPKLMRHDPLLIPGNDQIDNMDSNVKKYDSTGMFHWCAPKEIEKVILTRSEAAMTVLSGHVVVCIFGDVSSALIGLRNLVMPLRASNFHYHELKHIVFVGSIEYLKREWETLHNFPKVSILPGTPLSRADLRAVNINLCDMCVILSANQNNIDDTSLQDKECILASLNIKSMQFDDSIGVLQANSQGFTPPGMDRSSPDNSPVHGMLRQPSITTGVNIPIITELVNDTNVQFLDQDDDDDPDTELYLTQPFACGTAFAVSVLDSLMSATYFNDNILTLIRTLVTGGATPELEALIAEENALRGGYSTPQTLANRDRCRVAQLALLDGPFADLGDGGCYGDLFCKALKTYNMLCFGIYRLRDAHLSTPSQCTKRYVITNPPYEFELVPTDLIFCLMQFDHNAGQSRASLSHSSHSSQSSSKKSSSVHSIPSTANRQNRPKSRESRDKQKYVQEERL
T1 sequence (Q12791 whole entry): as above

In the case of `COc1ccc(Cl)cc1C(=O)NCCc1ccc(S(=O)(=O)NC(=O)NC2CCCCC2)cc1` [Glibenclamide, glibenclamide], the “Channel Type Affected: KATP” value (KATP channel) is listed as “KATP decreases” and the “Effect on Smooth Muscle Tone” value (corporal smooth muscle; Table 4) is listed as “increased tone”.

For `[Cl-].[K+]` [KCl], the “Channel Type Affected: KATP” value (KATP channel) is given as “KATP increases” and the “Effect on Smooth Muscle Tone” value (corporal smooth muscle; Table 4) is given as “modulates increase”.

In the case of `O=[N+]([O-])OCC(CO[N+](=O)[O-])O[N+](=O)[O-]` [NTG, nitroglycerine], the “expected percent relaxation response elicited by 100 nM nitroglycerine” value [1] is listed as 50.1%, the “Channel Type Affected: L-type Ca^2+” value (L-type Ca^2+ channel) is listed as “decreases” and the Channel activity increased (maxi-K channel [2]) is listed as “YES”. For the same compound, the “maxi-K channel activity (attached patch recording mode)” value (maxi-K channel [2]) was “increase in maxi-K channel activity”, the “percent relaxation response elicited by 100 nM nitroglycerine” value [3] was 20.3%±3.2 and the “Effect on Smooth Muscle Tone” value (corporal smooth muscle) was “decreased tone”.

For `CNC[C@H](O)c1cccc(O)c1` [PE, phenylephrine], the “Channel Type Affected: KCa” value (KCa channel) is listed as “KCa increases” and the “Effect on Smooth Muscle Tone” value (corporal smooth muscle; Table 4) is listed as “modulates increase”.

For `CCCCC[C@H](O)/C=C/[C@H]1[C@H](O)CC(=O)[C@@H]1CCCCCCC(=O)O` [PGE1, prostaglandin E1], the Channel activity increased (maxi-K channel [2]; 100 μM NTG or 30 nM–30 μM PGE1) is listed as “YES”, the “ET-1-induced calcium response decreased” value [4] is listed as “YES” and the “Channel Type Affected: KCa” value (KCa channel) is listed as “KCa increases”. The “Effect on Smooth Muscle Tone” value (corporal smooth muscle; Table 4) was “decreased tone”, the “decrease in peak amplitude of the ET-1-induced (50 nM) calcium transient” value [5] was “≈ 40%” and the “peak amplitude of the ET-1-induced (50 nM) calcium transient above baseline” value ([5]; control value 161.5±19.5 nM) was 102.6 ± 9.5 nM. The “activity of the maxi-K channel” value (maxi-K channel [6]) was “concentration-dependent increase”.

For `CC[N+](CC)(CC)CC` [TEA, tetraethylammonium], the PE-induced contraction increased [3] was “YES”, the Relaxation response decreased [3] was “YES” and the “Resting corporal smooth muscle tone increased” value [3] was “YES”. The “effect on NTG-induced relaxation response (100 nM)” value [3] was “significant attenuation”, the “Channel Type Affected: KCa” value (KCa channel) was “KCa decreases” and the “Effect on Smooth Muscle Tone” value (corporal smooth muscle) was “increased tone”.

In the case of `CC1(C)Oc2ccc(C#N)cc2C(N2CCCC2=O)C1O` (stereo not shown) [cromakalim], the “effect on precontracted corporal tissue strips” value [7] is listed as “relax” and the “effect when injected intracavernosally” value (monkeys and humans) is listed as “elicit an erection”.

For `CC1(C)Oc2ccc(C#N)cc2[C@@H](N2CCCC2=O)[C@@H]1O` [lemakalim], the “effect on precontracted corporal tissue strips” value [7] is given as “relax” and the “effect when injected intracavernosally” value (monkeys and humans) is given as “elicit an erection”.

In the case of `O=C(NCCO[N+](=O)[O-])c1cccnc1` [nicorandil], the “effect on precontracted corporal tissue strips” value [7] is listed as “relax” and the “effect when injected intracavernosally” value (monkeys and humans) is listed as “elicit an erection”.

In the case of `CC(N/C(=N\C#N)Nc1ccncc1)C(C)(C)C` (stereo not shown) [pinacidil], the “effect on precontracted corporal tissue strips” value [7] is given as “relax”, the “effect when injected intracavernosally” value (monkeys and humans) is given as “elicit an erection” and the “Channel Type Affected: KATP” value (KATP channel) is given as “KATP increases”. The “Effect on Smooth Muscle Tone” value (corporal smooth muscle; Table 4) was “decreased tone”.

For “endothelin-1 (CSCSSLMDKECVYFCHLDIIW; ends and bridges not checked; cysteine pairing not given here; UniProt P05305 53-73, looked up) [ET-1]”, the “Channel Type Affected: L-type Ca^2+” value (L-type Ca^2+ channel; Table 4) is given as “increases” and the “Effect on Smooth Muscle Tone” value (corporal smooth muscle; Table 4) is given as “increased tone”.
